Paper PMC6037779, “Repurposing drugs to target the malaria parasite unfolding protein response” (Scientific Reports, 2018)

Tests used:
[1] = target: T1, PfGRP78-NBD (Plasmodium falciparum, UniProt Q05866); assay: DSF thermal shift, PfGRP78-NBD; type: binding; details: compound 0.5 mM; shifts above or below 1 °C significant
T1 construct: His-tag (pET28-MHL, TEV site) (N, cleaved yes); made in house; host or cells: E. coli BL21(DE3)
Description: The Plasmodium and human GRP78 NBD differences were further characterized by measuring their interaction with ATP, ADP, and several compounds referenced in the literature as GRP78 inhibitors (Fig. 3a). Initially, their binding was determined using a DSF (Differential Scanning Fluorimetry) assay. In this assay, an interaction between the chaperone and a compound was measured as a change in the protein’s melting temperature (Tm), by subtracting the Tm of the protein by itself to the melting value of the protein in the presence of the compound. Differences above or below 1 °C between the melting temperatures (ΔTm) were considered indicative of a protein-compound interaction. As expected, the Plasmodium GRP78 chaperone interacted with both ATP and ADP. Four of the six compounds tested had significant effects on protein thermal stability (Fig. 3b).
DSF screening was carried out using a CFX96 Touch Real-Time PCR Detection System (BioRad, California). The PfGRP78-FL, PfGRP78-NBD wild type and mutant, and human GRP78-NBD were buffered in 25 mM hepes pH 7.5, 250 mM NaCl and assayed in a 96-well format. […]. The concentration was optimized for each protein to avoid saturation of the fluorescence detector. The GRP78 inhibitors were used at a final concentration of 0.5 mM. SYPRO Orange (Life Technologies, USA) was added as a fluorescence probe in a dilution of 1:1000. The experiments were conducted between 18 °C to 90 °C at a heating rate of 1 °C per minute. The recorded fluorescence reads were fitted to the Boltzmann sigmoid function using DMAN software. The inflection point of each fitted curve is defined as the melting temperature (Tm). The observed temperature shift, ΔTm, was recorded as the difference between Tm of the protein with ligand minus Tm of the protein without ligand. Thermal shifts above or below 1 °C were considered significant.

[2] = target: T2, PfGRP78-NBD Y39F (Plasmodium falciparum, UniProt Q05866, Y39F); assay: DSF thermal shift, PfGRP78-NBD Y39F mutant; type: binding
T2 construct: His-tag (pET28-MHL, TEV site) (N, cleaved yes); made in house; host or cells: E. coli BL21(DE3)
T2 sequence (Q05866 26-404 Y39F): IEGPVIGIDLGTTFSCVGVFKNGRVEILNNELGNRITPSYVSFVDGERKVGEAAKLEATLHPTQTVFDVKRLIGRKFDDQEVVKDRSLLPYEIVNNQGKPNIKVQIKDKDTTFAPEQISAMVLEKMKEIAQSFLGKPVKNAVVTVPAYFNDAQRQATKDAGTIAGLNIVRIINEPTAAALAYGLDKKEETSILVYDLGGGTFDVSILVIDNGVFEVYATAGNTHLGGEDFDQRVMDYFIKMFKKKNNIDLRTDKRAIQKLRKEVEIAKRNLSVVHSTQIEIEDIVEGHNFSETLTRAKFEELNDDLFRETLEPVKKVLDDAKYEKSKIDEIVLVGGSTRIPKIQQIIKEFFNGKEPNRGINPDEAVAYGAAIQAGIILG
Description: Initially, their binding was determined using a DSF (Differential Scanning Fluorimetry) assay. In this assay, an interaction between the chaperone and a compound was measured as a change in the protein’s melting temperature (Tm), by subtracting the Tm of the protein by itself to the melting value of the protein in the presence of the compound. Differences above or below 1 °C between the melting temperatures (ΔTm) were considered indicative of a protein-compound interaction.
DSF screening was carried out using a CFX96 Touch Real-Time PCR Detection System (BioRad, California). The PfGRP78-FL, PfGRP78-NBD wild type and mutant, and human GRP78-NBD were buffered in 25 mM hepes pH 7.5, 250 mM NaCl and assayed in a 96-well format. The final concentration of the protein sample was optimized between 0.05 and 0.2 mg/ml for each protein. The concentration was optimized for each protein to avoid saturation of the fluorescence detector. The GRP78 inhibitors were used at a final concentration of 0.5 mM. SYPRO Orange (Life Technologies, USA) was added as a fluorescence probe in a dilution of 1:1000.

[3] = target: T3, PfGRP78-NBD mut (Y39F) (Plasmodium falciparum, UniProt Q05866, Y39F); assay: SPR (Biacore) binding to PfGRP78-NBD Y39F mutant; details: ± standard error, 25 °C
T3 construct: His-tag (pET28-MHL, TEV site) (N, cleaved yes); made in house; host or cells: E. coli BL21(DE3)
T3 sequence (Q05866 26-404 Y39F): as above
Description: (§1) To quantify the binding affinities of PfGRP78-NBD for the selected compounds, dissociation constants (Kd) were determined by surface plasmon resonance (SPR). […] Purified PfGRP78-FL, PfGRP78-NBD wild-type and mutant, and human GRP78-NBD were immobilized on a CM5 sensorchip using NHS/EDC coupling following the manufacturer protocol to a level of <10,000 RUs, a reference surfaces without immobilized proteins served as a control for nonspecific binding and refractive index changes. Seven different concentrations of the ligands between 0.4 nM to 1 mM, were injected in triplicate over the sensor chip at 30 µL/min in random order. The running buffer was 10 mM HEPES, pH 7.4, 150 mM NaCl, 0.005% P20, 1% DMSO and 2 mM MgCl2. Buffer only injections were used as blanks. The Biacore responses recorded during the 30 seconds of the injection were used to estimate the association constant (kon) and the 300 seconds after the injection were used to estimate the dissociation constant (koff). All dissociation and kinetic constants were estimated using double subtracted sensorgrams[40] using BiaEvaluation Software (GE Healthcare). All the reported parasite dissociation constants (Kd) were estimated with affinity analysis, and all the reported human Kds were calculated from kinetic constants.

[4] = target: T4, huGRP78-NBD (Homo sapiens, UniProt P11021); assay: SPR (Biacore) binding to human GRP78-NBD; details: ± standard error; calculated from kinetic constants; 25 °C; read-out: affinity constant (Kd) determined by SPR, huGRP78-NBD
T4 construct: PfGRP78-NBD wild type and mutant, and human GRP78-NBD were buffered in 25 mM hepes pH 7.5
T4 sequence (P11021 26-407 limits assumed): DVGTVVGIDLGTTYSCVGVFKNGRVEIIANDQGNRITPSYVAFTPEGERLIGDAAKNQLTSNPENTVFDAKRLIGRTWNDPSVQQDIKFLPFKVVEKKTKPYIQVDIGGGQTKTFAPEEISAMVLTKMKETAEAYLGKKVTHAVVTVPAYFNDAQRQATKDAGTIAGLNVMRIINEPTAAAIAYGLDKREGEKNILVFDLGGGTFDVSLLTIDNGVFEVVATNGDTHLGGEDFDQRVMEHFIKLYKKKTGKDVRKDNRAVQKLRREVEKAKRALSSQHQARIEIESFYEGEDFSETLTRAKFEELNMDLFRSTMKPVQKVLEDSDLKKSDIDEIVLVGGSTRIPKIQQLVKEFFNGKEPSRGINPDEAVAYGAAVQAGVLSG
Description: as §1, with “Seven different concentrations of the ligands between 0.4 nM to 1 mM, were injected in triplicate over the sensor chip at 30 µL/min in random order.” left out

T1 sequence (Q05866 26-404): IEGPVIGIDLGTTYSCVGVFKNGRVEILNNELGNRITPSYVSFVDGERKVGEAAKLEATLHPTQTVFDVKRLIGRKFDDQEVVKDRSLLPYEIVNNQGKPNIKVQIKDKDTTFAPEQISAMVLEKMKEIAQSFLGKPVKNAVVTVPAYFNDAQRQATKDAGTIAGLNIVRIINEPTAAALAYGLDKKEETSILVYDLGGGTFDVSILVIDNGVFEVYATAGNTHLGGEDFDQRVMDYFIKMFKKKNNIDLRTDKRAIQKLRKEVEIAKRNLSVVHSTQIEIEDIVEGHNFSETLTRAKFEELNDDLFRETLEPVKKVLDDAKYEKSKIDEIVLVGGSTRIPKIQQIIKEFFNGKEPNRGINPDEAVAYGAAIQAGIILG

COc1ccc(-c2nc(-c3cc(C(F)(F)F)cc(C(F)(F)F)c3)n(Cc3ccc(C(N)=O)cc3)c2-c2ccc(OC)cc2)cc1 [Apoptozole]
DSF effect on thermal stability of PfGRP78-NBD [1]: increased the thermal stability | DSF binding to PfGRP78-NBD Y39F [2]: failed to bind | affinity constant (Kd) determined by SPR, PfGRP78-NBD mut [3]: N.B. | Kd [4]: 6.9 ± 0.33 µM
